# Reference: patent US9113629B2, “4-amino-6-(4-substituted-phenyl)-picolinates and 6-amino-2-(4-substituted-phenyl)-pyrimidine-4-carboxylates and their use as herbicides” (DOW AGROSCIENCES LLC, priority 2013, dated 2015)
# System: Key Broadleaf Weed and Crop Species
# Assay: Post-emergent Test II herbicidal activity (Table 5)
# Type: in vivo
# Conditions: post-emergence, 336 h; ABUTH: velvetleaf (Abutilon theophrasti); application rate 70 g ai/ha; 14 days after application; read-out: Visual Growth Reduction (%) 14 Days After Application, ABUTH
# Method in brief: (§1)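 Plants grown in Metro-Mix 360 (pH 6.0–6.8) in a greenhouse (~15 h photoperiod, 23–29 °C day) to first or second true leaf stage, then sprayed with compound in acetone/DMSO/aqueous crop-oil-surfactant carrier at 187 L/ha by track sprayer. Injury visually scored 0–100% versus untreated plants after 14 d.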
row,Structure (SMILES),pest or weed control at 70 g/ha
1,"COC(=O)c1nc(-c2ccc(I)cc2)c(F)c(N)c1Cl [Compound 118, Methyl 4-amino-6-(4-iodophenyl)-3-chloro-5-fluoropicolinate]",95 to 100%

# Same assay, conditions: post-emergence, 336 h; ABUTH: velvetleaf (Abutilon theophrasti); application rate 140 g ai/ha; 14 days after application; read-out: Visual Growth Reduction (%) 14 Days After Application, ABUTH
row,Structure (SMILES),pest or weed control at 140 g/ha
1,"COC(=O)c1nc(-c2ccc(I)cc2)c(F)c(N)c1Cl [Compound 118, Methyl 4-amino-6-(4-iodophenyl)-3-chloro-5-fluoropicolinate]",95 to 100%

# Same assay, conditions: post-emergence, 336 h; AMARE: redroot pigweed (Amaranthus retroflexus); application rate 70 g ai/ha; 14 days after application; read-out: Visual Growth Reduction (%) 14 Days After Application, AMARE
row,Structure (SMILES),pest or weed control at 70 g/ha
1,"COC(=O)c1nc(-c2ccc(I)cc2)c(F)c(N)c1Cl [Compound 118, Methyl 4-amino-6-(4-iodophenyl)-3-chloro-5-fluoropicolinate]",95 to 100%

# Same assay, conditions: post-emergence, 336 h; AMARE: redroot pigweed (Amaranthus retroflexus); application rate 140 g ai/ha; 14 days after application; read-out: Visual Growth Reduction (%) 14 Days After Application, AMARE
row,Structure (SMILES),pest or weed control at 140 g/ha
1,"COC(=O)c1nc(-c2ccc(I)cc2)c(F)c(N)c1Cl [Compound 118, Methyl 4-amino-6-(4-iodophenyl)-3-chloro-5-fluoropicolinate]",95 to 100%

# Same assay, conditions: post-emergence, 336 h; BRSNN: oilseed-rape, canola (Brassica napus); application rate 70 g ai/ha; 14 days after application; read-out: Visual Growth Reduction (%) 14 Days After Application, BRSNN
row,Structure (SMILES),pest or weed control at 70 g/ha
1,"COC(=O)c1nc(-c2ccc(I)cc2)c(F)c(N)c1Cl [Compound 118, Methyl 4-amino-6-(4-iodophenyl)-3-chloro-5-fluoropicolinate]",95 to 100%

# Same assay, conditions: post-emergence, 336 h; BRSNN: oilseed-rape, canola (Brassica napus); application rate 140 g ai/ha; 14 days after application; read-out: Visual Growth Reduction (%) 14 Days After Application, BRSNN
row,Structure (SMILES),pest or weed control at 140 g/ha
1,"COC(=O)c1nc(-c2ccc(I)cc2)c(F)c(N)c1Cl [Compound 118, Methyl 4-amino-6-(4-iodophenyl)-3-chloro-5-fluoropicolinate]",95 to 100%

# Same assay, conditions: post-emergence, 336 h; CHEAL: lambsquarters (Chenopodium album); application rate 70 g ai/ha; 14 days after application; read-out: Visual Growth Reduction (%) 14 Days After Application, CHEAL
row,Structure (SMILES),pest or weed control at 70 g/ha
1,"COC(=O)c1nc(-c2ccc(I)cc2)c(F)c(N)c1Cl [Compound 118, Methyl 4-amino-6-(4-iodophenyl)-3-chloro-5-fluoropicolinate]",95 to 100%

# Same assay, conditions: post-emergence, 336 h; CHEAL: lambsquarters (Chenopodium album); application rate 140 g ai/ha; 14 days after application; read-out: Visual Growth Reduction (%) 14 Days After Application, CHEAL
row,Structure (SMILES),pest or weed control at 140 g/ha
1,"COC(=O)c1nc(-c2ccc(I)cc2)c(F)c(N)c1Cl [Compound 118, Methyl 4-amino-6-(4-iodophenyl)-3-chloro-5-fluoropicolinate]",95 to 100%

# Same assay, conditions: post-emergence, 336 h; EPHHL: wild poinsettia (Euphorbia heterophylla); application rate 70 g ai/ha; 14 days after application; read-out: Visual Growth Reduction (%) 14 Days After Application, EPHHL
row,Structure (SMILES),pest or weed control at 70 g/ha
1,"COC(=O)c1nc(-c2ccc(I)cc2)c(F)c(N)c1Cl [Compound 118, Methyl 4-amino-6-(4-iodophenyl)-3-chloro-5-fluoropicolinate]",95 to 100%

# Same assay, conditions: post-emergence, 336 h; EPHHL: wild poinsettia (Euphorbia heterophylla); application rate 140 g ai/ha; 14 days after application; read-out: Visual Growth Reduction (%) 14 Days After Application, EPHHL
row,Structure (SMILES),pest or weed control at 140 g/ha
1,"COC(=O)c1nc(-c2ccc(I)cc2)c(F)c(N)c1Cl [Compound 118, Methyl 4-amino-6-(4-iodophenyl)-3-chloro-5-fluoropicolinate]",95 to 100%

# Same assay, conditions: post-emergence, 336 h; HELAN: sunflower (Helianthus annuus); application rate 70 g ai/ha; 14 days after application; read-out: Visual Growth Reduction (%) 14 Days After Application, HELAN
row,Structure (SMILES),pest or weed control at 70 g/ha
1,"COC(=O)c1nc(-c2ccc(I)cc2)c(F)c(N)c1Cl [Compound 118, Methyl 4-amino-6-(4-iodophenyl)-3-chloro-5-fluoropicolinate]",95 to 100%

# Same assay, conditions: post-emergence, 336 h; HELAN: sunflower (Helianthus annuus); application rate 140 g ai/ha; 14 days after application; read-out: Visual Growth Reduction (%) 14 Days After Application, HELAN
row,Structure (SMILES),pest or weed control at 140 g/ha
1,"COC(=O)c1nc(-c2ccc(I)cc2)c(F)c(N)c1Cl [Compound 118, Methyl 4-amino-6-(4-iodophenyl)-3-chloro-5-fluoropicolinate]",95 to 100%

# Same assay, conditions: post-emergence, 336 h; VIOTR: wild pansy (Viola tricolor); application rate 70 g ai/ha; 14 days after application; read-out: Visual Growth Reduction (%) 14 Days After Application, VIOTR
row,Structure (SMILES),pest or weed control at 70 g/ha
1,"COC(=O)c1nc(-c2ccc(I)cc2)c(F)c(N)c1Cl [Compound 118, Methyl 4-amino-6-(4-iodophenyl)-3-chloro-5-fluoropicolinate]",85 to 94%

# Same assay, conditions: post-emergence, 336 h; VIOTR: wild pansy (Viola tricolor); application rate 140 g ai/ha; 14 days after application; read-out: Visual Growth Reduction (%) 14 Days After Application, VIOTR
row,Structure (SMILES),pest or weed control at 140 g/ha
1,"COC(=O)c1nc(-c2ccc(I)cc2)c(F)c(N)c1Cl [Compound 118, Methyl 4-amino-6-(4-iodophenyl)-3-chloro-5-fluoropicolinate]",95 to 100%

# System: Key Grass and Sedge Weeds as well as Grass Crops
# Assay: Post-emergent Test II herbicidal activity (Table 6)
# Type: in vivo
# Conditions: post-emergence, 336 h, CYPES: yellow nutsedge (Cyperus esculentus), 70 g ai/ha, read-out: Visual Growth Reduction (%) 14 Days After Application, CYPES
# Method in brief: as §1
row,Structure (SMILES),pest or weed control at 70 g/ha
1,"COC(=O)c1nc(-c2ccc(I)cc2)c(F)c(N)c1Cl [Compound 118, Methyl 4-amino-6-(4-iodophenyl)-3-chloro-5-fluoropicolinate]",95 to 100%
